The values that follow come from patent EP4810052A2, “HCRHR2 SELECTIVE POLYPEPTIDES” (Gubra A/S, priority 2023, dated 2026).

One assay deals with T1, hCRHR1 (Homo sapiens, UniProt P34998).
T1 sequence (P34998 24-415): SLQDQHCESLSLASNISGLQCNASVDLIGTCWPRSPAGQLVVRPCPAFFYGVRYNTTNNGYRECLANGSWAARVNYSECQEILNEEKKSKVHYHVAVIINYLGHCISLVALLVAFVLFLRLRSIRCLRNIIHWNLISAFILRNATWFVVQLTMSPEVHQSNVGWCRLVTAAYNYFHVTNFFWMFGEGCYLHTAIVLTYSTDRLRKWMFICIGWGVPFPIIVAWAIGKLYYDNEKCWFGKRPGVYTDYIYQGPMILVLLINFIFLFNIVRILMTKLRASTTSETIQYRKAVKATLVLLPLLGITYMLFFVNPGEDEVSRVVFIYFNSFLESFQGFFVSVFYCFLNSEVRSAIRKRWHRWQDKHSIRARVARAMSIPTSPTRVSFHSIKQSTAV
Put plainly: HTRF cAMP assay, determination of hCRHR1 potency (peptide libraries 5 conc., purified peptides 11 conc.). In kind it is cell-based. A digest of the protocol:
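Cellular cAMP was read by time-resolved FRET between d2-labelled cAMP and cryptate anti-cAMP antibody. The cells were freshly thawed suspension CHO-K1 cells stably expressing human CRHR1.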

The next assay addresses T2, hCRHR2 (Homo sapiens, UniProt Q13324).
T2 sequence (Q13324 1-411): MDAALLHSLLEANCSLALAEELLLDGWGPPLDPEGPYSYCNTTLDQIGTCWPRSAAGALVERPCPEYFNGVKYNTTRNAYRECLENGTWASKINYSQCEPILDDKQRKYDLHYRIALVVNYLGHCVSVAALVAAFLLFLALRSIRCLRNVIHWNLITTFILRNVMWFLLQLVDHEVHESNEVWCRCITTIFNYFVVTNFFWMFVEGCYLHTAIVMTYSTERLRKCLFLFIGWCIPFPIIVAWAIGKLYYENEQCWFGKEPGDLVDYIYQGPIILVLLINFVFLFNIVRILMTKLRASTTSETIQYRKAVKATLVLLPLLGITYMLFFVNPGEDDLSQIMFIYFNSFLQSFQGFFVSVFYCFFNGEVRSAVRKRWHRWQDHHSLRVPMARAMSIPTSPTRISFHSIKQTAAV
Put plainly: HTRF cAMP assay, determination of hCRHR2 potency (peptide libraries 5 conc., purified peptides 11 conc.). In kind it is cell-based. Put shortly: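 EC50 derived by variable-slope sigmoid regression of FRET-based cAMP data; cellular cAMP displaced d2-labelled tracer from cryptate anti-cAMP antibody. Stable human CRHR2 CHO-K1 suspension cells, revived from frozen stocks just before the run.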

Where [1] appears, read: library peptides, matched molecular pairs L vs Nle in position X^38, read-out: Potency hCRHR1 pEC50 (converted).
[2] abbreviates: library peptides, matched molecular pairs L vs Nle in position X^38, read-out: Potency hCRHR2 pEC50 (converted).
The mark [3] stands for this setting: Table 3, matched molecular pairs X^38 L vs Nle, peptide library of Example 4, read-out: hCRHR1 pEC50 (converted).
Where [4] appears, read: Table 3, matched molecular pairs X^38 L vs Nle, peptide library of Example 4, read-out: hCRHR2 pEC50 (converted).

SMILES strings stand for the structures. Read-outs that look alike come from different tables or passages of the source. Starred links: 1 amine or outer side, 2 acyl side, 3 side chain; linkers in the order of their positions; H or OH if unused. Non-standard residues stand in square brackets, D forms with d. Residues, ends and D or L forms follow the SMILES beside them. Groups on a side chain read outwards from the residue. *: point of attachment. C20 diacid = O=C(O)CCCCCCCCCCCCCCCCCCC(=O)*; Pro(cis-4-F) = O=C(O)[C@@H]1C[C@H](F)CN1; γGlu = O=C(O)[C@H](CCC(=O)[*:2])N[*:1]; NMeI = CC[C@H](C)[C@H](NC)C(=O)O; Nle = CCCC[C@H](N)C(=O)O; AEEA = NCCOCCOCC(=O)O; Aib = CC(C)(N)C(=O)O

`CC[C@H](C)[C@H](N)C(=O)N[C@H](C(=O)N[C@@H](CC(C)C)C(=O)N[C@@H](CO)C(=O)N[C@@H](CC(C)C)C(=O)N[C@@H](CC(=O)O)C(=O)N[C@H](C(=O)N1C[C@@H](F)C[C@H]1C(=O)N[C@H](C(=O)NCC(=O)N[C@@H](CC(C)C)C(=O)N[C@@H](CC(C)C)C(=O)N[C@@H](CCC(N)=O)C(=O)N[C@H](C(=O)N[C@@H](CC(C)C)C(=O)N[C@@H](CC(C)C)C(=O)N[C@H](C(=O)N[C@@H](CCC(N)=O)C(=O)N[C@@H](C)C(=O)N[C@@H](CCCNC(=N)N)C(=O)N[C@@H](C)C(=O)N[C@@H](CCCNC(=N)N)C(=O)N[C@@H](C)C(=O)N[C@@H](C)C(=O)N[C@@H](CCCNC(=N)N)C(=O)N[C@@H](CCC(=O)O)C(=O)N[C@@H](CCC(N)=O)C(=O)N[C@@H](C)C(=O)N[C@@H](CCCCNC(=O)COCCOCCNC(=O)COCCOCCNC(=O)CC[C@H](NC(=O)CC[C@H](NC(=O)CCCCCCCCCCCCCCCCCCC(=O)O)C(=O)O)C(=O)O)C(=O)N[C@H](C(=O)N[C@@H](CC(N)=O)C(=O)N[C@@H](C)C(=O)N[C@@H](CCC(=O)O)C(=O)N[C@H](C(=O)N[C@@H](CC(C)C)C(=O)N[C@@H](C)C(=O)N[C@@H](CCC(=O)O)C(=O)N[C@H](C(N)=O)C(C)C)[C@@H](C)CC)[C@@H](C)O)[C@@H](C)O)[C@@H](C)CC)[C@@H](C)CC)C(C)C)C(C)C` [compound 80] (H-IVLSLDV[Pro(cis-4-F)]IGLLQILLTQARARAAREQAK([AEEA-AEEA-γGlu-γGlu-C20 diacid])TNAEILAEV-NH2): the EC50 at hCRHR1 (setting [1]) was 25.1 µM; on hCRHR2 (setting [2]) it was 1 nM.
Regarding `CC[C@H](C)[C@H](N)C(=O)N[C@H](C(=O)N[C@@H](CC(C)C)C(=O)N[C@@H](CO)C(=O)N[C@@H](CC(C)C)C(=O)N[C@@H](CC(=O)O)C(=O)N[C@H](C(=O)N1CCC[C@H]1C(=O)N[C@H](C(=O)NCC(=O)N[C@@H](CC(C)C)C(=O)N[C@@H](CC(C)C)C(=O)N[C@@H](CCC(N)=O)C(=O)N[C@H](C(=O)N[C@@H](CC(C)C)C(=O)N[C@@H](CC(C)C)C(=O)N[C@@H](CCC(=O)O)C(=O)N[C@@H](CCC(N)=O)C(=O)N[C@@H](C)C(=O)N[C@@H](CCCNC(=N)N)C(=O)N[C@@H](C)C(=O)N[C@@H](CCC(N)=O)C(=O)N[C@@H](C)C(=O)N[C@@H](C)C(=O)N[C@@H](CCCNC(=N)N)C(=O)N[C@@H](CCC(=O)O)C(=O)N[C@@H](CCCNC(=N)N)C(=O)N[C@@H](C)C(=O)N[C@@H](CCCCNC(=O)COCCOCCNC(=O)COCCOCCNC(=O)CC[C@H](NC(=O)CC[C@H](NC(=O)CCCCCCCCCCCCCCCCCCC(=O)O)C(=O)O)C(=O)O)C(=O)N[C@H](C(=O)N[C@@H](CC(N)=O)C(=O)N[C@@H](C)C(=O)N[C@@H](CCC(=O)O)C(=O)N[C@H](C(=O)N[C@@H](CC(C)C)C(=O)N[C@@H](C)C(=O)N[C@@H](CCC(=O)O)C(=O)N[C@H](C(N)=O)C(C)C)[C@@H](C)CC)[C@@H](C)O)[C@@H](C)CC)[C@@H](C)CC)C(C)C)C(C)C` [compound 48] (H-IVLSLDVPIGLLQILLEQARAQAARERAK([AEEA-AEEA-γGlu-γGlu-C20 diacid])TNAEILAEV-NH2), the EC50 at hCRHR1 (setting [1]) is 20 µM; on hCRHR2 (setting [2]), 0.398 nM.
With `CCCC[C@H](NC(=O)[C@@H](NC(=O)[C@H](CCC(=O)O)NC(=O)[C@H](C)NC(=O)[C@H](CC(N)=O)NC(=O)[C@@H](NC(=O)[C@H](CCCCNC(=O)COCCOCCNC(=O)COCCOCCNC(=O)CC[C@H](NC(=O)CC[C@H](NC(=O)CCCCCCCCCCCCCCCCCCC(=O)O)C(=O)O)C(=O)O)NC(=O)[C@H](C)NC(=O)[C@H](CCC(N)=O)NC(=O)[C@H](CCC(=O)O)NC(=O)[C@H](CCCNC(=N)N)NC(=O)[C@H](C)NC(=O)[C@H](C)NC(=O)[C@H](CCC(=O)O)NC(=O)[C@H](C)NC(=O)[C@H](CCCNC(=N)N)NC(=O)[C@H](C)NC(=O)[C@H](CCC(N)=O)NC(=O)[C@H](CCC(=O)O)NC(=O)[C@H](CC(C)C)NC(=O)[C@H](CC(C)C)NC(=O)[C@@H](NC(=O)[C@H](CCC(N)=O)NC(=O)[C@H](CC(C)C)NC(=O)[C@H](CC(C)C)NC(=O)CNC(=O)[C@@H](NC(=O)[C@@H]1CCCN1C(=O)[C@@H](NC(=O)[C@H](CC(=O)O)NC(=O)[C@H](CC(C)C)NC(=O)[C@H](CO)NC(=O)[C@H](CC(C)C)NC(=O)[C@@H](NC(=O)[C@@H](N)[C@@H](C)CC)C(C)C)C(C)C)[C@@H](C)CC)[C@@H](C)CC)[C@@H](C)O)[C@@H](C)CC)C(=O)N[C@@H](C)C(=O)N[C@@H](CCC(=O)O)C(=O)N[C@H](C(N)=O)C(C)C` [SEQ ID NO: 26] (H-IVLSLDVPIGLLQILLEQARAEAAREQAK([AEEA-AEEA-γGlu-γGlu-C20 diacid])TNAEI[Nle]AEV-NH2), the EC50 at hCRHR1 (setting [3]) is 0.251 µM; at hCRHR2 (setting [4]) it was 0.316 nM.
Regarding `CC[C@H](C)[C@H](N)C(=O)N[C@H](C(=O)N[C@@H](CC(C)C)C(=O)N[C@@H](CO)C(=O)N[C@@H](CC(C)C)C(=O)N[C@@H](CC(=O)O)C(=O)N[C@H](C(=O)N1CCC[C@H]1C(=O)N[C@H](C(=O)NCC(=O)N[C@@H](CC(C)C)C(=O)N[C@@H](CC(C)C)C(=O)N[C@@H](CCC(N)=O)C(=O)N[C@H](C(=O)N[C@@H](CC(C)C)C(=O)N[C@@H](CC(C)C)C(=O)N[C@@H](CCC(=O)O)C(=O)N[C@@H](CCC(N)=O)C(=O)N[C@@H](C)C(=O)N[C@@H](CCCNC(=N)N)C(=O)N[C@@H](C)C(=O)N[C@@H](CCCNC(=N)N)C(=O)N[C@@H](CO)C(=O)N[C@@H](C)C(=O)N[C@@H](CCCNC(=N)N)C(=O)N[C@@H](CCC(=O)O)C(=O)N[C@@H](CCC(N)=O)C(=O)N[C@@H](C)C(=O)N[C@@H](CCCCNC(=O)COCCOCCNC(=O)COCCOCCNC(=O)CC[C@H](NC(=O)CC[C@H](NC(=O)CCCCCCCCCCCCCCCCCCC(=O)O)C(=O)O)C(=O)O)C(=O)N[C@H](C(=O)N[C@@H](CC(N)=O)C(=O)N[C@@H](C)C(=O)N[C@@H](CCC(=O)O)C(=O)N[C@H](C(=O)N[C@@H](CC(C)C)C(=O)N[C@@H](C)C(=O)N[C@@H](CCC(=O)O)C(=O)N[C@H](C(N)=O)[C@@H](C)CC)[C@@H](C)CC)[C@@H](C)O)[C@@H](C)CC)[C@@H](C)CC)C(C)C)C(C)C` [SEQ ID NO: 35] (H-IVLSLDVPIGLLQILLEQARARSAREQAK([AEEA-AEEA-γGlu-γGlu-C20 diacid])TNAEILAEI-NH2), the EC50 was 79.4 µM at hCRHR1 (setting [3]) and 0.501 nM on hCRHR2 (setting [4]).
As for `CCCC[C@H](NC(=O)[C@@H](NC(=O)[C@H](CCC(=O)O)NC(=O)[C@H](C)NC(=O)[C@H](CC(N)=O)NC(=O)C(C)(C)NC(=O)[C@H](CCCCNC(=O)COCCOCCNC(=O)COCCOCCNC(=O)CC[C@H](NC(=O)CC[C@H](NC(=O)CCCCCCCCCCCCCCCCCCC(=O)O)C(=O)O)C(=O)O)NC(=O)[C@H](C)NC(=O)[C@H](CCC(N)=O)NC(=O)[C@H](CCC(=O)O)NC(=O)[C@H](CCCNC(=N)N)NC(=O)[C@H](C)NC(=O)[C@H](C)NC(=O)[C@H](CCCNC(=N)N)NC(=O)[C@H](C)NC(=O)[C@H](CCCNC(=N)N)NC(=O)[C@H](C)NC(=O)[C@H](CCC(N)=O)NC(=O)[C@H](Cc1ccccc1)NC(=O)[C@H](CC(C)C)NC(=O)[C@H](CC(C)C)NC(=O)[C@@H](NC(=O)[C@H](CCC(N)=O)NC(=O)[C@H](CC(C)C)NC(=O)[C@H](CC(C)C)NC(=O)CNC(=O)[C@@H](NC(=O)[C@@H]1CCCN1C(=O)[C@@H](NC(=O)[C@H](CC(=O)O)NC(=O)[C@H](CC(C)C)NC(=O)[C@H](CO)NC(=O)[C@H](CC(C)C)NC(=O)[C@@H](NC(=O)[C@@H](NC)[C@@H](C)CC)C(C)C)C(C)C)[C@@H](C)CC)[C@@H](C)CC)[C@@H](C)CC)C(=O)N[C@@H](C)C(=O)N[C@@H](CCC(=O)O)C(=O)N[C@H](C(N)=O)C(C)C` [compound 128] (H-[NMeI]VLSLDVPIGLLQILLFQARARAAREQAK([AEEA-AEEA-γGlu-γGlu-C20 diacid])[Aib]NAEI[Nle]AEV-NH2), the EC50 was 100 µM at hCRHR1 (Table 4, library peptides having X^38 = Nle, read-out: hCRHR1 pEC50 (converted)) and 0.00501 nM at hCRHR2 (Table 4, library peptides having X^38 = Nle, read-out: hCRHR2 pEC50 (converted)).
